Experimental data from patent US20210338782A1, “STORAGE STABLE SOMATOSTATIN-DOPAMINE CHIMERIC COMPOUNDS AND SALT FORMS THEREOF” (Cydan II, Inc., priority 2019, published 2021).
Counter-ions that a name gives are not always drawn.

Experiments:
Type in all cases: physicochemical
[1] = Time and temperature stability of lyophilized TBR-760 salts in sealed glass vials (visual appearance, HPLC); settings: for salt form degraded: sealed glass vials, HPLC, hydrochloride salt
Method: Lyophilized TBR-760 salts prepared as described above were assessed for stability by visual appearance and HPLC following initial production of the salt and following incubation of the salt at 20° C., 40° C., and 60° C. for 2, 4, and 8 weeks in sealed, glass vials. Changes in visual appearance of the salt were noted by evaluating the color of the substance following each incubation condition. Purity of the salt following each incubation condition was evaluated by HPLC. The number and quantity of degradation products were determined according to the number of absorbance peaks that resulted at different retention times and the size of the peaks.

[2] = Thermogravimetric analysis (TGA) of TBR-760 salt forms; settings: ramp 5.0° C. per minute from 25 to 400° C.; hydrochloride salt
Method: Thermogravimetric analyses (TGA) were performed on all TBR-760 salt forms to evaluate thermal stability of each salt form. Studies were performed using a TGA-Q500 thermogravimetric analyzer (TA Instruments). The weight of each compound was measured while the temperature was increased at a ramp rate of 5.0° C. per minute from 25 to 400° C. […] The weight loss may be indicative of loss of adsorbed moisture, entrained solvent or volatile impurities. Decomposition of the compound appears to start at about 234° C. (sulfate salt), 245° C. (chloride salt), 252° C. (tosylate salt), and 255° C. (mesylate salt). For the acetate salt, a further ˜5% loss of weight between 110° C. and 200° C. was observed, indicating loss of volatile acetate ions over that temperature range (FIG. 8).

[3] = Solid state (thermolytic) stability of TBR-760 salt forms, open container, UPLC peak purity and appearance
Method: (§1) Each TBR-760 salt was further evaluated for thermolytic stability over time by setting up three different exposure conditions (25° C. at 60% relative humidity (RH); 40° C. at 75% RH; or 60° C. with open and closed container systems (open dish/closed dish). Approximately 50 mg of each salt form was weighed in a nitrogen-flushed glove box for use in the studies. All samples were stored at −20° C. in a good laboratory practice (GLP) freezer both before and after exposure to the indicated conditions.
(§2) The stability of each salt form was assessed by monitoring the post-exposure drug peak purity and by evaluating the post-exposure visual appearance of the salt. The samples were removed from the exposure conditions and allowed to equilibrate to ambient conditions for 15-20 mins. An appropriate amount of each sample was weighed for analysis and dissolved in diluent (deionized water containing 0.1% TFA) to obtain a stock concentration of 1 mg/mL. The stock solution was then diluted to 0.125 mg/mL in an HPLC vial using diluent and the samples were run on a Waters Acquity UPLC system using the parameters shown in Table 4.

[4] = Photostability of TBR-760 salt forms (ICH Q1B, visible and UV light), appearance and UPLC purity; settings: for degradation upon exposure to visible or UV light, in words: visible and UV light
Description: (§3) In order to evaluate the light sensitivity and stability of TBR-760 chimeric peptide salts, all five salt forms were exposed to ultraviolet (UV) and visible light according to International Council for Harmonisation of Technical Requirements for Pharmaceuticals for Human Use (ICH) guideline Q1B for photostability testing. In brief, a Caron 6540-1 photostability chamber unit with separate UV and light chambers was used for the studies. Visible light exposure was 1.2 million lux hours and UV exposure was 200 watt hours/square meter.
Samples were placed in clear, sealed vials and stored in the appropriate chamber alongside dark controls in amber colored vials wrapped in aluminum foil. Control samples were stored in sealed amber vials at −20° C. The appearance of exposed samples was examined visually before being analyzed via UPLC.

[5] = Thermostability of alternative salt forms of lanreotide and TBR-760 (UPLC); settings: for thermostability in words: increasing temperature and humidity (25° C./60% RH, 40° C./75% RH, 60° C.) up to 4 weeks
Method: as §1, §2
We conducted thermostability studies of lanreotide acetate substantially as described in Example 6. These experiments confirmed that lanreotide acetate is […] when exposed to increasing temperature and humidity conditions over time (FIG. 45). […] (FIG. 45). This degree of thermal and humidity instability is disfavored for a pharmaceutical agent, particularly one intended for patient self-administration at home.
To determine whether a thermostable salt form of TBR-760 could be manufactured, a salt exchange was performed as described in Example 1 to generate bromide and chloride salts of TBR-760. Lanreotide bromide and lanreotide chloride salts were also generated and assessed for thermostability to evaluate the effect of the salt form on compound stability and to compare stability of lanreotide and TBR-760 of each salt.
UPLC assays performed as described in Example 6 were further used to determine the number of degradants—and thus the number of impurities—in each sample. Results showing the purity assessment of each sample following thermostability studies are shown in FIGS. 48A-48B (lanreotide and TBR-760 acetate salts), 49A-49B (lanreotide and TBR-760 bromide salts), and 50A-50B (lanreotide and TBR-760 chloride salts).

[6] = Photostability of alternative salt forms of lanreotide and TBR-760; settings: 1.2 million lux hours visible light or 200 watt hours/square meter UV light, hydrochloride salt
Description: as §3
Photostability of lanreotide acetate, lanreotide bromide, lanreotide chloride, TBR-760 acetate, TBR-760 bromide and TBR760 chloride was tested according to the methods of Example 7. Four samples were prepared for each salt form: one control for each of the UV and visible light exposure conditions (controls isolated from light) and one sample for exposure to each of the UV and visible light conditions. For each sample, 2-5 mg of the salt was weighed into 3 mL clear serum vials and stoppered. Vials containing control samples were wrapped in aluminum foil.
Following exposure to visible and UV light, all lanreotide and TBR-760 salts were analyzed by UPLC as described in Example 7.

[7] = 25° C. at 60% RH, open container
[8] = 40° C. at 75% RH, open container
[9] = 60° C., open dish, hydrochloride salt
[10] = UPLC peak purity, 25° C. at 60% RH, open container, hydrochloride salt
[11] = UPLC peak purity, 40° C. at 75% RH, open container, hydrochloride salt
[12] = UPLC peak purity, 60° C., open dish, hydrochloride salt
[13] = all thermostability conditions, UPLC

With CCCN1C[C@H](CSCC(=O)NCCCC[C@@H](NC(=O)CSC[C@@H]2C[C@@H]3c4cccc5[nH]cc(c45)C[C@H]3N(CCC)C2)C(=O)N[C@H]2CSSC[C@@H](C(=O)N[C@H](C(N)=O)[C@@H](C)O)NC(=O)[C@H](CC)NC(=O)[C@H](CCCCN)NC(=O)[C@@H](Cc3c[nH]c4ccccc34)NC(=O)[C@H](Cc3ccc(O)cc3)NC2=O)C[C@@H]2c3cccc4[nH]cc(c34)C[C@H]21 [TBR-760 chloride, Dop2-D-Lys(Dop2)-cyclo[Cys-Tyr-D-Trp-Lys-Abu-Cys]-Thr-NH2 hydrochloride salt] the “change in visual appearance” value ([1]; 8 weeks at 60° C.) was “no change in the visual appearance”, the salt form degraded ([1]; 60° C. for 4 weeks) was 0.5% and the salt form degraded ([1]; 60° C. for 8 weeks) was “less than 1%”. The “TGA start of decomposition” value [2] was roughly 245 °C, the “Appearance, T = 2 wk” value [3, 7] was “White” and the “Appearance, T = 4 wk” value [3, 7] was “White”. For the same molecule, the “Appearance, T = 3 d” value [3, 7] was “White”, the “stability compared with the other salt forms” value ([3]; 40° C. at 75% RH and 60° C., 2 and 4 weeks, hydrochloride salt) was “significantly more stable” and the “Appearance, T = 2 wk” value [3, 8] was “White”. For the same molecule, the “Appearance, T = 4 wk” value ([3]; 40° C. at 75% RH, open container, hydrochloride salt) was “White”, the “Appearance, T = 3 d” value [3, 8] was “White” and the “Appearance, T = 2 wk” value [3, 9] was “White”. The “Appearance, T = 4 wk” value [3, 9] was “White”, the “Appearance, T = 3 d” value ([3]; 60° C., open dish) was “White” and the “Purity, T = 2 wk” value [3, 10] was 98.28. For the same molecule, the “Purity, T = 4 wk” value [3, 10] was 98.04, the “Purity, T = 3 d” value [3, 10] was 98.44 and the “Purity, T = 2 wk” value [3, 11] was 97.62. For the same molecule, the “Purity, T = 4 wk” value [3, 11] was 97.78, the “Purity, T = 3 d” value [3, 11] was 98.36 and the “Purity, T = 2 wk” value [3, 12] was 97.58. The “Purity, T = 4 wk” value [3, 12] was 97.17, the “Purity, T = 3 d” value [3, 12] was 98.45 and the “Purity, Control” value ([3]; UPLC peak purity, control, stored at -20° C., hydrochloride salt) was 98.31. For the same molecule, the “Appearance, Control” value ([3]; control, stored at -20° C.) was “White”, the “additional degradants in chromatogram versus control” value ([3]; two weeks at 60° C., open dish, UPLC, hydrochloride salt) was “two” and the “Purity, UV-exposed” value ([4]; UPLC, UV 200 watt hours/square meter, clear sealed vial, hydrochloride salt) was 97.06. For the same molecule, the “Purity, Control” value ([4]; UPLC, control in sealed amber vial at -20° C., hydrochloride salt) was 98.31, the “Purity, Dark Ctrl-UV” value ([4]; UPLC, dark control in UV chamber, hydrochloride salt) was 98.37 and the “Purity, Dark Crtl-Light” value ([4]; UPLC, dark control in visible light chamber, hydrochloride salt) was 98.33. For the same molecule, the “Purity, Light-exposed” value ([4]; UPLC, visible light 1.2 million lux hours, clear sealed vial, hydrochloride salt) was 96.41, the “stability following UV exposure, in words” value ([4]; UV 200 watt hours/square meter) was “more stable following UV exposure than the acetate, mesylate, sulfate, or tosylate salts” and the “Appearance, UV-exposed” value ([4]; UV 200 watt hours/square meter, clear sealed vial, listed as Chloride, hydrochloride salt) was “white”. For the same molecule, the “Appearance, UV-exposed” value ([4]; UV 200 watt hours/square meter, clear sealed vial, listed as chloride salt, hydrochloride salt) was “remained unchanged”, the “Appearance, Control” value ([4]; control in sealed amber vial at -20° C.) was “white” and the “Appearance, Dark Ctrl-UV” value ([4]; dark control in UV chamber, amber vial wrapped in aluminum foil) was “white”. The “Appearance, Dark Crtl-Light” value ([4]; dark control in visible light chamber, amber vial wrapped in aluminum foil) was “white”, the “degradation upon exposure to visible or UV light, in words” value ([4]; UPLC, hydrochloride salt) was “more resistant to degradation than TBR-760 acetate” and the “degradation upon exposure to visible or UV light, in words” value ([4]; UPLC, listed as TBR-760 chloride salt, hydrochloride salt) was “more stable”. The “stability following light exposure, in words” value ([4]; visible light 1.2 million lux hours) was “significantly more stable than the TBR-760 acetate salt”, the “Appearance, Light-exposed” value ([4]; visible light 1.2 million lux hours, clear sealed vial, listed as Chloride, hydrochloride salt) was “white” and the “Appearance, Light-exposed” value ([4]; visible light 1.2 million lux hours, clear sealed vial, listed as chloride, hydrochloride salt) was “no visible discoloration”. The compound degraded ([5]; 4 weeks at 60° C. and ambient humidity, hydrochloride salt) was “less than 0.6%”, the “number of impurities compared with other TBR-760 salts” value [5, 13] was “fewer impurities” and the “percent purity compared with other TBR-760 salts” value [5, 13] was “higher percent purity”. For the same molecule, the thermostability in words ([5]; listed as TBR-760 hydrochloride, hydrochloride salt) was “thermostable”, the thermostability in words ([5]; listed as chloride salt form of TBR-760, hydrochloride salt) was “stable” and the “visible appearance after exposure to visible and UV light” value ([6]; versus control) was “did not visibly change”. For the same molecule, the “photostability in words (UPLC purity)” value [6] was “as photostable as TBR-760 acetate”.
